# Values of other authors in patent US9623127B2, “Multimodal contrast and radiopharmaceutical agent for an imaging and a targeted therapy guided by imaging” (CENTRE NATIONAL DE LA RECHERCHE SCIENTIFIQUE, priority 2011, dated 2017).
# Settings: 0.6 T, 20° C.
structure (smiles),measurement,value
O=C([O-])CN(CCN(CC(=O)[O-])CC(=O)O)CCN(CC(=O)[O-])CC(=O)O.[Gd+3] [Gd(III)DTPA],longitudinal relaxivity r1,5.4 mM⁻¹ s⁻¹
